Assay results from ChEMBL document CHEMBL4507285, “Data for DCP probe MRL-SYKi” (2021).

Tests used:
[1] = test system: Tyrosine-protein kinase ABL1 (Homo sapiens), P00519 [H396P]; conditions: Compound concentration 100.0 nM
[2] = target: NUAK family SNF1-like kinase 1 (Homo sapiens) (UniProt O60285); conditions: Compound concentration 100.0 nM
[3] = target: Aurora kinase A (Homo sapiens) (UniProt O14965); conditions: Compound concentration 100.0 nM
[4] = target: Tyrosine-protein kinase Blk (Homo sapiens) (UniProt P51451); conditions: Compound concentration 100.0 nM
[5] = target: Calcium/calmodulin-dependent protein kinase type 1D (Homo sapiens) (UniProt Q8IU85); conditions: Compound concentration 100.0 nM
[6] = target: Calcium/calmodulin-dependent protein kinase kinase 1 (Homo sapiens) (UniProt Q8N5S9); conditions: Compound concentration 100.0 nM
[7] = target: Peripheral plasma membrane protein CASK (Homo sapiens) (UniProt O14936); conditions: Compound concentration 100.0 nM
[8] = target: Tyrosine-protein kinase CSK (Homo sapiens) (UniProt P41240); conditions: Compound concentration 100.0 nM
[9] = target: Ephrin type-A receptor 6 (Homo sapiens) (UniProt Q9UF33); conditions: Compound concentration 100.0 nM
[10] = target: Mitogen-activated protein kinase 7 (Homo sapiens) (UniProt Q13164); conditions: Compound concentration 100.0 nM
[11] = target: Fibroblast growth factor receptor 1 (Homo sapiens) (UniProt P11362); conditions: Compound concentration 100.0 nM
[12] = target: Vascular endothelial growth factor receptor 1 (Homo sapiens) (UniProt P17948); conditions: Compound concentration 100.0 nM
[13] = test system: Receptor-type tyrosine-protein kinase FLT3 (Homo sapiens), P36888 [D835Y]; conditions: Compound concentration 100.0 nM
[14] = target: G protein-coupled receptor kinase 3 (Homo sapiens) (UniProt P35626); conditions: Compound concentration 100.0 nM
[15] = target: Tyrosine-protein kinase ITK/TSK (Homo sapiens) (UniProt Q08881); conditions: Compound concentration 100.0 nM
[16] = target: Mitogen-activated protein kinase 9 (Homo sapiens) (UniProt P45984); conditions: Compound concentration 100.0 nM
[17] = target: Mitogen-activated protein kinase kinase kinase kinase 2 (Homo sapiens) (UniProt Q12851); conditions: Compound concentration 100.0 nM
[18] = target: Microtubule-associated serine/threonine-protein kinase 1 (Homo sapiens) (UniProt Q9Y2H9); conditions: Compound concentration 100.0 nM
[19] = target: Dual specificity mitogen-activated protein kinase kinase 5 (Homo sapiens) (UniProt Q13163); conditions: Compound concentration 100.0 nM
[20] = target: Mitogen-activated protein kinase kinase kinase 11 (Homo sapiens) (UniProt Q16584); conditions: Compound concentration 100.0 nM
[21] = target: Mitogen-activated protein kinase 12 (Homo sapiens) (UniProt P53778); conditions: Compound concentration 100.0 nM
[22] = target: Serine/threonine-protein kinase PAK 5 (Homo sapiens) (UniProt Q9P286); conditions: Compound concentration 100.0 nM
[23] = target: Cyclin-dependent kinase 16 (Homo sapiens) (UniProt Q00536); conditions: Compound concentration 100.0 nM
[24] = target: Phosphorylase b kinase regulatory subunit alpha, liver isoform (Homo sapiens) (UniProt P46019); conditions: Compound concentration 100.0 nM
[25] = test system: Phosphatidylinositol 4,5-bisphosphate 3-kinase catalytic subunit alpha isoform (Homo sapiens), P42336 [E545A]; conditions: Compound concentration 100.0 nM
[26] = test system: Phosphatidylinositol 4,5-bisphosphate 3-kinase catalytic subunit alpha isoform (Homo sapiens), P42336 [H1047L]; conditions: Compound concentration 100.0 nM
[27] = target: Membrane-associated tyrosine- and threonine-specific cdc2-inhibitory kinase (Homo sapiens) (UniProt Q99640); conditions: Compound concentration 100.0 nM
[28] = target: RAF proto-oncogene serine/threonine-protein kinase (Homo sapiens) (UniProt P04049); conditions: Compound concentration 100.0 nM
[29] = test system: Proto-oncogene tyrosine-protein kinase receptor Ret (Homo sapiens), P07949 [V804M]; conditions: Compound concentration 100.0 nM
[30] = target: Rho-associated protein kinase 1 (Homo sapiens) (UniProt Q13464); conditions: Compound concentration 100.0 nM
[31] = target: Ribosomal protein S6 kinase alpha-4 (Homo sapiens) (UniProt O75676); conditions: Compound concentration 100.0 nM
[32] = target: Serine/threonine-protein kinase SIK2 (Homo sapiens) (UniProt Q9H0K1); conditions: Compound concentration 100.0 nM
[33] = target: Tyrosine-protein kinase receptor Tie-1 (Homo sapiens) (UniProt P35590); conditions: Compound concentration 100.0 nM
[34] = target: NT-3 growth factor receptor (Homo sapiens, UniProt Q16288); conditions: Compound concentration 100.0 nM
[35] = target: Testis-specific serine/threonine-protein kinase 3 (Homo sapiens) (UniProt Q96PN8); conditions: Compound concentration 100.0 nM
[36] = target: Tyrosine-protein kinase TXK (Homo sapiens) (UniProt P42681); conditions: Compound concentration 100.0 nM
[37] = target: Serine/threonine-protein kinase WNK3 (Homo sapiens) (UniProt Q9BYP7); conditions: Compound concentration 100.0 nM
[38] = target: 5-hydroxytryptamine receptor 1A (Homo sapiens) (UniProt P08908); conditions: Compound concentration 10.0 uM
[39] = target: D(3) dopamine receptor (Homo sapiens) (UniProt P35462); conditions: Compound concentration 10.0 uM
[40] = target: D(4) dopamine receptor (Homo sapiens) (UniProt P21917); conditions: Compound concentration 10.0 uM
[41] = target: GABA-A receptor; anion channel (Rattus norvegicus) (UniProt O09028+P15431+P18506+P18508+P19969+P20236+P23574+P23576+P28471+P28473+P30191+P62813+P63079+P63138+Q91ZM7+Q9ES14); conditions: Compound concentration 10.0 uM
[42] = target: Muscarinic acetylcholine receptor M3 (Homo sapiens) (UniProt P20309); conditions: Compound concentration 10.0 uM
Rattus norvegicus = species on record: Rattus norvegicus; conditions: Compound concentration 10.0 uM
[43] = target: Alpha-1D adrenergic receptor (Homo sapiens) (UniProt P25100); conditions: Compound concentration 10.0 uM

Peripheral plasma membrane protein CASK (Homo sapiens), sequence (O14936 whole entry): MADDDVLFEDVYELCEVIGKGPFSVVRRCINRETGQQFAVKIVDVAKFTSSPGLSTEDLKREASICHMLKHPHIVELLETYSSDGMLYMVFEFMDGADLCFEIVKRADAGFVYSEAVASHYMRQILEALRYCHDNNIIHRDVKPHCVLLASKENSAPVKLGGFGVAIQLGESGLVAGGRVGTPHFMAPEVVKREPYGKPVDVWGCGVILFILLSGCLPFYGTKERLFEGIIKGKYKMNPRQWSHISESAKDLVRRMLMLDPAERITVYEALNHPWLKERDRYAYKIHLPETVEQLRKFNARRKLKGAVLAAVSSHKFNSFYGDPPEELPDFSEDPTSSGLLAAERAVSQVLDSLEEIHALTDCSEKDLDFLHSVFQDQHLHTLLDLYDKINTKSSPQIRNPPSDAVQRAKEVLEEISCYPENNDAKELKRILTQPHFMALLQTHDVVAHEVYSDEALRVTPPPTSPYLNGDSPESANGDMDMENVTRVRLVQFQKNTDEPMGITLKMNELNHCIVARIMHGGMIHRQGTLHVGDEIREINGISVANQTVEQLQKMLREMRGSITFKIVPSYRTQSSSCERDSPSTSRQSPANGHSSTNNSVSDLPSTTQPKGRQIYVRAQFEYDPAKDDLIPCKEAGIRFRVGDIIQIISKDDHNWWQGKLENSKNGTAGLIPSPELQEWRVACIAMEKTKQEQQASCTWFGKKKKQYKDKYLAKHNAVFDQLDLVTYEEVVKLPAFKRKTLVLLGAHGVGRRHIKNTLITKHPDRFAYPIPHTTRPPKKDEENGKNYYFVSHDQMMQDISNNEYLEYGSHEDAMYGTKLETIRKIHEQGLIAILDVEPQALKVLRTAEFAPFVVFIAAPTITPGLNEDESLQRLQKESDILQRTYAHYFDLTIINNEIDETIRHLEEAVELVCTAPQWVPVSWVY
Serine/threonine-protein kinase WNK3 (Homo sapiens), sequence (Q9BYP7 whole entry): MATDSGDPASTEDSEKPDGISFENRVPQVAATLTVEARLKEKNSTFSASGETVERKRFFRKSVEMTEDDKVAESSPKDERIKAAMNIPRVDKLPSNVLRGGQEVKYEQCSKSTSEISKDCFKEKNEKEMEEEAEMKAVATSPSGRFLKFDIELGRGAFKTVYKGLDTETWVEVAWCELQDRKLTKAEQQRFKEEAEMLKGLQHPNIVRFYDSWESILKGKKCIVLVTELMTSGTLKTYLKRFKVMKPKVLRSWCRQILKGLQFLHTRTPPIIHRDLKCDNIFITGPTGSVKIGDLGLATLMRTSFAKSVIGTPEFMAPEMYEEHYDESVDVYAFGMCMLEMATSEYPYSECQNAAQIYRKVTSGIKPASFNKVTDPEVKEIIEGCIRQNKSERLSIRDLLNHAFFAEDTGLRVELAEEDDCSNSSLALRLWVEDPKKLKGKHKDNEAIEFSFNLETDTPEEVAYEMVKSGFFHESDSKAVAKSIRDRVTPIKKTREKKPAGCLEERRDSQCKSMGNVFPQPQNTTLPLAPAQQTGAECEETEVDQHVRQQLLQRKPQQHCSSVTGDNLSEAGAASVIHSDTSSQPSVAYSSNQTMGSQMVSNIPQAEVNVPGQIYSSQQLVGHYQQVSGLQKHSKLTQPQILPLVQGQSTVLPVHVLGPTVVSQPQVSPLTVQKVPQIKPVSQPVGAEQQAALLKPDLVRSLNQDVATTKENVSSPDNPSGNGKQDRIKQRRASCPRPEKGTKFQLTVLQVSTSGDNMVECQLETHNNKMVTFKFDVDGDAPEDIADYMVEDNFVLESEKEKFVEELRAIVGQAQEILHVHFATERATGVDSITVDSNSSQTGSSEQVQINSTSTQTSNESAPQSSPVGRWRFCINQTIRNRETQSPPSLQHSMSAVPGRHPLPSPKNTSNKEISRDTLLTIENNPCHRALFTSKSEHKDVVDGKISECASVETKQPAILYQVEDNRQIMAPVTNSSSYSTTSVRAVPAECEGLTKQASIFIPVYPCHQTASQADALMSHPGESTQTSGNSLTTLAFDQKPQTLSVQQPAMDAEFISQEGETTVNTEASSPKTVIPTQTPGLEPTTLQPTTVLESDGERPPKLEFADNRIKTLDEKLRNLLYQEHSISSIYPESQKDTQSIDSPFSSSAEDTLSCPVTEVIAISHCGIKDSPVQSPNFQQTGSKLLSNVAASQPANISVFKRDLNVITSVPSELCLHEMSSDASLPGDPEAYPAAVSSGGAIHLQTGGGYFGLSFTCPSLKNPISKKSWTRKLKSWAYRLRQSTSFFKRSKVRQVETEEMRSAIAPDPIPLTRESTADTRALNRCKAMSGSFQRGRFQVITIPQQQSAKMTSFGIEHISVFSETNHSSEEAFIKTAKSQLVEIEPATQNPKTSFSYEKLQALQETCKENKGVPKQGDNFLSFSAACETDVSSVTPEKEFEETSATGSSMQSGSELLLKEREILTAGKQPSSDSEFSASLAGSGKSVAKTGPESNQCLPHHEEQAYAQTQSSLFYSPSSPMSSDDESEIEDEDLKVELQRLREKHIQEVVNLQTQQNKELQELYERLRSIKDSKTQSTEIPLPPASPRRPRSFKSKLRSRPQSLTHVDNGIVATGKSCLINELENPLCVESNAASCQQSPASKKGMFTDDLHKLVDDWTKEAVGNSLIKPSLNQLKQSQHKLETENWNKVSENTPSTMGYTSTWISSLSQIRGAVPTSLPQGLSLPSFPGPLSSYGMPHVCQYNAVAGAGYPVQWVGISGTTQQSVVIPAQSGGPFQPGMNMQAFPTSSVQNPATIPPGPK
Vascular endothelial growth factor receptor 1 (Homo sapiens), sequence (P17948 whole entry): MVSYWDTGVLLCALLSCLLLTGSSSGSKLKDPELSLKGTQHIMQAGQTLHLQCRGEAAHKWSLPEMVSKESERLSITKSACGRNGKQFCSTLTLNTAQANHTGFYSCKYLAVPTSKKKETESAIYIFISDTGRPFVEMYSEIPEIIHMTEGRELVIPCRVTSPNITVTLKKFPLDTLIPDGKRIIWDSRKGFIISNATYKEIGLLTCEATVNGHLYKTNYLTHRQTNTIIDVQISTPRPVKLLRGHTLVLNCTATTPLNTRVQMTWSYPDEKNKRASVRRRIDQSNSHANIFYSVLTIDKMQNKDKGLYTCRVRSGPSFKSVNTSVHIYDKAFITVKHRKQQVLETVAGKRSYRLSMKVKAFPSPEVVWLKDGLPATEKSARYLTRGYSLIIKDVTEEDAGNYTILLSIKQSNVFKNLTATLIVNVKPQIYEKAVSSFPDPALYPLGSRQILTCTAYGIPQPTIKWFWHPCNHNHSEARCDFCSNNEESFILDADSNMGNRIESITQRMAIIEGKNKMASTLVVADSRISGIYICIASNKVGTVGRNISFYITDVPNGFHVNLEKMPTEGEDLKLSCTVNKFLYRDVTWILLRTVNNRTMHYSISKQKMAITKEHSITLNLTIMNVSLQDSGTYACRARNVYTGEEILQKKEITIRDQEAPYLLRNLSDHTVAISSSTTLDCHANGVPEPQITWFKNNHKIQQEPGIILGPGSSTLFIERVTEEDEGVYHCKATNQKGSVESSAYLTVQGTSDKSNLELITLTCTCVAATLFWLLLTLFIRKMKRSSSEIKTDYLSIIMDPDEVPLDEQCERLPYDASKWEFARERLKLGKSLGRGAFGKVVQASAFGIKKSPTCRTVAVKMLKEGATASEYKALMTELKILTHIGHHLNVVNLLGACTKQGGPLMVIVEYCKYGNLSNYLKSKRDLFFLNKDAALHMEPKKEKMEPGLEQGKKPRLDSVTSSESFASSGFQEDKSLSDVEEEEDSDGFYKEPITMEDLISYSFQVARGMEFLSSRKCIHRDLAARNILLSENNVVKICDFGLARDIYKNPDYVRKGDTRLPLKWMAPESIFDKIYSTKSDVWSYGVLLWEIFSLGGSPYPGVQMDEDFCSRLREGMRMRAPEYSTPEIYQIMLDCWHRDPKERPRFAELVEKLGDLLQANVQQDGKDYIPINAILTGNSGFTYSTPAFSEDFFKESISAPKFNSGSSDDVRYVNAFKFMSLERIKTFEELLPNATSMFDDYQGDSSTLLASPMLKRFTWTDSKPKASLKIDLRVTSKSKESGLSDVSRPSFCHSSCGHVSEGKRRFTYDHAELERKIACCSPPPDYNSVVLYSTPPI
Muscarinic acetylcholine receptor M3 (Homo sapiens), sequence (P20309 whole entry, looked up): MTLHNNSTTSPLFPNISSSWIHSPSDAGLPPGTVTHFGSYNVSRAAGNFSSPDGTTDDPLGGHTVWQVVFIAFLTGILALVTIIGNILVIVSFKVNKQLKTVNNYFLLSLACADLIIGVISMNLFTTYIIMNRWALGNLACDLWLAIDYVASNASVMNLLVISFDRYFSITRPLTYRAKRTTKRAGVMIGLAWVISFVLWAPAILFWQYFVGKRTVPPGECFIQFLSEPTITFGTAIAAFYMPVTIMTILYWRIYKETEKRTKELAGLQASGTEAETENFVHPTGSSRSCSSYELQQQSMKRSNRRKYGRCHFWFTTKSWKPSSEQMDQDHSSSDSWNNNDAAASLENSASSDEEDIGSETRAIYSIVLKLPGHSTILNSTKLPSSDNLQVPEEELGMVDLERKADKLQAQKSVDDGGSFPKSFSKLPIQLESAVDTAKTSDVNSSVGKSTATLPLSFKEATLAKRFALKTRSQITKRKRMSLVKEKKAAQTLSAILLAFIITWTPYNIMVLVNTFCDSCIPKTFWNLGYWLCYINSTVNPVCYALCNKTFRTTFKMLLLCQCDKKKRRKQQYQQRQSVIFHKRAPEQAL
Testis-specific serine/threonine-protein kinase 3 (Homo sapiens), sequence (Q96PN8 whole entry): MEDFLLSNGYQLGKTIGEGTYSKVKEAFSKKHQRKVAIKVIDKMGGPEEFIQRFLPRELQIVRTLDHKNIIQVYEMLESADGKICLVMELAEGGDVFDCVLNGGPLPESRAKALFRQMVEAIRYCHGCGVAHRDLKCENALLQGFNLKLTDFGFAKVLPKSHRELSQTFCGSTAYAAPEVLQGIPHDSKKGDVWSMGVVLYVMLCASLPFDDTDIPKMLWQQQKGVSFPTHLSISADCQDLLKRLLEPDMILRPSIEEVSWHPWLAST

`Cc1ccc(-c2cnc([C@@]3(O)CC[C@H](C(=O)O)C(C)(C)C3)s2)cc1Nc1cccc(C(F)(F)F)n1` [MRL-SYKi-NC] showed a residual activity [1] of 95.4%, a residual activity [2] of 100% and a residual activity [3] of 60.2%. For the same molecule, the residual activity [4] was 100%, the residual activity [5] was 89.6% and the residual activity [6] was 84.1%. The residual activity [7] was 100%, the residual activity [8] was 82.3% and the residual activity [9] was 100%. It also gave a residual activity [10] of 100%, a residual activity [11] of 92.4% and a residual activity [12] of 97.7%. The residual activity [13] was 94.1%, the residual activity [14] was 98.3% and the residual activity [15] was 94.7%. For the same molecule, the residual activity [16] was 45.3%, the residual activity [17] was 100% and the residual activity [18] was 100%. It also gave a residual activity [19] of 85.2%, a residual activity [20] of 100% and a residual activity [21] of 98.8%. For the same molecule, the residual activity [22] was 96%, the residual activity [23] was 93% and the residual activity [24] was 100%. The residual activity [25] was 74.7%, the residual activity [26] was 94.8% and the residual activity [27] was 93.1%. For the same molecule, the residual activity [28] was 100%, the residual activity [29] was 100% and the residual activity [30] was 100%. For the same molecule, the residual activity [31] was 95.1%, the residual activity [32] was 88.9% and the residual activity [33] was 86.8%. For the same molecule, the residual activity [34] was 80%, the residual activity [35] was 100% and the residual activity [36] was 88.4%. It also gave a residual activity [37] of 0%, an inhibition [38] of 17.5% and an inhibition [39] of -8.44%. For the same molecule, the inhibition [40] was -9.54%, the inhibition [41] was 20.3% and the inhibition [42] was 6.69%. It also gave an inhibition (Rattus norvegicus) of 71.8% and an inhibition [43] of -2.32%.
With `Cc1cc(Nc2nccc(C)n2)cc(-c2cnc([C@@]3(O)CC[C@H](C(=O)O)C(C)(C)C3)s2)c1` [MRL-SYKi] the residual activity [1] was 53.9%, the residual activity [2] was 100% and the residual activity [3] was 100%. The residual activity [4] was 74.6%, the residual activity [5] was 97.1% and the residual activity [6] was 66.6%. For the same molecule, the residual activity [7] was 64.9%, the residual activity [8] was 100% and the residual activity [9] was 95.8%. The residual activity [10] was 83.6%, the residual activity [11] was 82% and the residual activity [12] was 100%. It also gave a residual activity [13] of 83.4%, a residual activity [14] of 73.7% and a residual activity [15] of 81%. The residual activity [16] was 100%, the residual activity [17] was 100% and the residual activity [18] was 100%. It also gave a residual activity [19] of 25.2%, a residual activity [20] of 92.6% and a residual activity [21] of 31.2%. The residual activity [22] was 100%, the residual activity [23] was 100% and the residual activity [24] was 100%. It also gave a residual activity [25] of 72.7%, a residual activity [26] of 81.7% and a residual activity [27] of 100%. For the same molecule, the residual activity [28] was 100%, the residual activity [29] was 81.3% and the residual activity [30] was 70.7%. For the same molecule, the residual activity [31] was 100%, the residual activity [32] was 95.7% and the residual activity [33] was 68.1%. For the same molecule, the residual activity [34] was 82.6%, the residual activity [35] was 100% and the residual activity [36] was 64%. For the same molecule, the residual activity [37] was 100%, the inhibition [38] was -0.0778% and the inhibition [39] was -5.53%. The inhibition [40] was -6.05%, the inhibition [41] was -2.68% and the inhibition [42] was 17.4%. The inhibition (Rattus norvegicus) was 3.63% and the inhibition [43] was -4.92%.
